pEC50, pIC50, pKi: −log10 of the molar value. Like-named read-outs stand apart in the source and are kept apart here.
Columns and labels:
A2B adenosine receptor [1] = conditions: [15] Martin et al. (1993); NECA-stimulated atrium (A1) or aorta (A2A); cited from earlier work
A2B receptors = target: T1, A2B receptors (Mus musculus, UniProt Q60614); assay: NECA-stimulated cAMP accumulation in MCEC-1 cells; conditions: data from the current study (no reference); for Affinity or potency (Ki, KD, KB, IC50 or EC50) at A2B, mouse (m), current study: 95% CI in parentheses
T1 sequence (Q60614 1-332): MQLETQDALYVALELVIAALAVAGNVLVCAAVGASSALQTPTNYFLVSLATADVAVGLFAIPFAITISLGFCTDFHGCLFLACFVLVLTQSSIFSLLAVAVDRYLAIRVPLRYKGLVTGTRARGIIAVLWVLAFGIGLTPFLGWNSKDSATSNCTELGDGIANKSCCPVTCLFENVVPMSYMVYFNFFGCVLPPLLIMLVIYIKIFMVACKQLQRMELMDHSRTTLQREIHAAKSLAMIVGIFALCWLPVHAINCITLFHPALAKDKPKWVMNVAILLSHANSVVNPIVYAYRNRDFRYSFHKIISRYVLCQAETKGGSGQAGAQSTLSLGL

A2A adenosine receptor [2] = target: A2A adenosine receptor (Cavia porcellus, UniProt P46616); conditions: [15] Martin et al. (1993); NECA-stimulated atrium (A1) or aorta (A2A); cited from earlier work
A2A adenosine receptor [3] = target: T2, A2A adenosine receptor (Mus musculus, UniProt Q60612); assay: Potency at mouse receptor, current study, in A2A of Table 1; type: cell-based; conditions: data from the current study (no reference)
T2 construct: from tissue; host or cells: isolated perfused C57Bl/6 mouse heart (my inference)
T2 sequence (Q60612 1-326): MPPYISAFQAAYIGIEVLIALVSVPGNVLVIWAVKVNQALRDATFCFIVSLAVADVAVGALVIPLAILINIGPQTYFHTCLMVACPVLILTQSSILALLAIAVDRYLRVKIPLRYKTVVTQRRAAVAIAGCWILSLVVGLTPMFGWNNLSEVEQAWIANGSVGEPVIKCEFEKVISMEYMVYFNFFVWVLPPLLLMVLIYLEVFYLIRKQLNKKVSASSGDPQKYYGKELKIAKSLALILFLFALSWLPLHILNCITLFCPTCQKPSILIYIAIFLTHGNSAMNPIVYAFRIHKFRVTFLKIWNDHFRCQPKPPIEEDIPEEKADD
Excerpt: Measurement of cAMP accumulation.

A1 receptors = target: T3, A1 receptors (Mus musculus, UniProt Q60612); assay: Inhibition of forskolin-stimulated cAMP accumulation in mouse eEPCs; conditions: read-out: EC50, antagonism of the action of CPA on forskolin-stimulated cAMP accumulation; eEPCs; 10 nmol/L CPA; 1 μmol/L forskolin
T3 sequence (Q60612 1-326): T2 sequence (Q60612 1-326)

[4] = system: eEPC adhesion to MCEC-1 cells; assay: eEPC adhesion to MCEC-1 cells under static conditions; type: cell-based, mouse; conditions: for pIC50: read-out: IC50, inhibition of NECA-induced eEPC adhesion
[5] = system: CE-EPC adhesion to HMVEC-c cells; assay: Adhesion of human culture-expanded EPCs (CE-EPCs) to HMVEC-c cells; conditions: increasing concentrations
HMVEC-c cells = assay: cAMP accumulation in HMVEC-c cells; type: cell-based, human
Excerpt: Primary cultures of human cardiac microvascular endothelial cells (HMVEC-c) were obtained from Cambrex (Walkersville, Md.), and cultured using EGM™-2 MV growth medium (Cambrex). HMVEC-c from passages 2 to 5 were used. Measurement of cAMP accumulation.

eEPCs = assay: cAMP accumulation in mouse eEPCs (forskolin, NECA); conditions: FIG. 1B
[6] = system: eEPC adhesion to MCEC-1 cells; assay: eEPC adhesion to MCEC-1 cells under flow conditions; type: cell-based, mouse; conditions: 10 μmol/L; shear stress 0.75 and 1 dyne/cm^2; 10 minutes
Protocol: Analysis of cell adhesion under flow conditions. Adhesion assays under flow conditions were performed using a parallel plate flow chamber (Glycotech, Rockville, Md.) following the manufacturer's instructions. Cell suspension or cell-free medium were drown into chambers by a syringe pump (Model 44, Harvard Apparatus, Inc., Holliston, Mass.) at a constant rate to generate a desired wall shear stress (τ, dynes/cm2) using the formula τ=6Qμ/a^2b, where Q is flow rate, μ is medium viscosity, b is channel width, and a is channel height. […] Cell adhesion was determined by analysis of digitized video recordings using NIH Image software. Cell-based P-selectin enzyme-linked immunoassay To analyze cell-surface P-selectin expression, the inventors used a previously published method (Cleator et al., 2005). […] After washing and blocking, cells were incubated with 5 μg/mL rat anti-mouse CD62P antibodies (Fitzgerald Industries) or rat isotype-matched control antibody (BD Biosciences) for 1 hour. After washing, a secondary goat anti-rat horseradish peroxidase-conjugated antibody (Jackson ImmunoResearch, West Grove, Pa.) was added for 1 hour followed by washing and then analyzed at […] after addition of substrate.

A2B adenosine receptor [7] = target: T4, A2B adenosine receptor (Homo sapiens, UniProt P29275); conditions: [11] Feoktistov and Biaggioni (1998); NECA-stimulated HEL cells; cited from earlier work
T4 sequence (P29275 1-332): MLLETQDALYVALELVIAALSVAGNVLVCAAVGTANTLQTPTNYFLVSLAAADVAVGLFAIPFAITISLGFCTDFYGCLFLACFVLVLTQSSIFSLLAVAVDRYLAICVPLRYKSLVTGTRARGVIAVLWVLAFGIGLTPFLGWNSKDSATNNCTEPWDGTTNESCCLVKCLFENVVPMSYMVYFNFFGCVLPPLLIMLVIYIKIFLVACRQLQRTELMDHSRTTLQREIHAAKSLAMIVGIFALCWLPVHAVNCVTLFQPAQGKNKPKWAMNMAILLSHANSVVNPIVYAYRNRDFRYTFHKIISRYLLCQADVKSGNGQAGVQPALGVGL

A2A adenosine receptor [8] = target: A2A adenosine receptor (Mus musculus, UniProt Q60613); conditions: [13] Lopes et al. (2004), striatum, radioligand [3H]SCH58261, cited from earlier work
A2A adenosine receptor [9] = target: A2A adenosine receptor (Rattus norvegicus, UniProt P30543); conditions: cited from earlier work
Sequence of A2A adenosine receptor (Rattus norvegicus, UniProt P30543) (P30543 whole entry): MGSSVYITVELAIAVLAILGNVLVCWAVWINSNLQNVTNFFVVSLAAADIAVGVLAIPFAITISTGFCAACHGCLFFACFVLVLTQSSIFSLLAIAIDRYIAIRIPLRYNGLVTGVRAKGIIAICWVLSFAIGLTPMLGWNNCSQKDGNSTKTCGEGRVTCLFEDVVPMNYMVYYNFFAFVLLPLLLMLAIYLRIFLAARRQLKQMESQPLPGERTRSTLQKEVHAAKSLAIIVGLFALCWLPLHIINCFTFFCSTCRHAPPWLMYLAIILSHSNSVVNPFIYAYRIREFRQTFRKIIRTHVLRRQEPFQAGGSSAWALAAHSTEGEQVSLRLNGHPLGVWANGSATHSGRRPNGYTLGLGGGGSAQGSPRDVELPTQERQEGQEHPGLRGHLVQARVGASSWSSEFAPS

Sequence of A2A adenosine receptor (Cavia porcellus, UniProt P46616) (P46616 whole entry): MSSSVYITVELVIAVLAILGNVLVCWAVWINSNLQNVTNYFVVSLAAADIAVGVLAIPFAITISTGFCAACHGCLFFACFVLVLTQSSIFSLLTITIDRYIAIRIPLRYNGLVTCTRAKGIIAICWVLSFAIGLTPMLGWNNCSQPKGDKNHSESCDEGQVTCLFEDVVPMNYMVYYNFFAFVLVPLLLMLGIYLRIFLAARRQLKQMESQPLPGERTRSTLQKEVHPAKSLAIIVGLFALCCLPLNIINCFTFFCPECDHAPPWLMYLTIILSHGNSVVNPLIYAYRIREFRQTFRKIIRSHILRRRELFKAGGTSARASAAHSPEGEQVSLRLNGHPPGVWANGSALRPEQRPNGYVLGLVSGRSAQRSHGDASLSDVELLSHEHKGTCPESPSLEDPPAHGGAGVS
Sequence of A2A adenosine receptor (Mus musculus, UniProt Q60613) (Q60613 whole entry): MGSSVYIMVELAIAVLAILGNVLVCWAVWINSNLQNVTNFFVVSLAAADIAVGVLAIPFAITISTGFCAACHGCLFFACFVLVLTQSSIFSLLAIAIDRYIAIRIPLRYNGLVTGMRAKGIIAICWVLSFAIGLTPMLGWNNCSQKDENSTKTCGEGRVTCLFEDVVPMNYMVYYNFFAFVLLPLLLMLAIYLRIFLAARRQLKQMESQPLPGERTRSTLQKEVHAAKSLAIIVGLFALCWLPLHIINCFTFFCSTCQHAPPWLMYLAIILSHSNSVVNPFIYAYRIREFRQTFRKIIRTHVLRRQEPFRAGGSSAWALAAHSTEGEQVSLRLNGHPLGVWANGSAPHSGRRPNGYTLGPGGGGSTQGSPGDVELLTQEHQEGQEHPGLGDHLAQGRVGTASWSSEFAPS

In the case of `Cn1cnc2c(NC3CC4CCC3C4)ncnc21` (stereo not shown) [N-0861], the “Affinity or potency at A2B, guinea pig (gp)” value (A2B adenosine receptor [1]) is listed as “gp 56,200 nmol/L”, the “Affinity or potency at A2B, guinea pig (gp), log” value (A2B adenosine receptor [1]) is listed as “(±11,400), −4.3 [15] log mol/L” and the “Affinity or potency at A2B, mouse (m), current study, log” value (A2B receptors) is listed as 65,610); −4.4 log mol/L. For the same compound, the “Affinity or potency (Ki, KD, KB, IC50 or EC50) at A2B, mouse (m), current study” value (A2B receptors) was “m 39,350 (23,600- nmol/L”, the “Affinity or potency at A2A, guinea pig (gp)” value (A2A adenosine receptor [2]) was 575 (±86) nmol/L and the “Affinity or potency at A2A, guinea pig (gp), log” value (A2A adenosine receptor [2]) was 6.2 log mol/L. For the same compound, the “Affinity or potency at A2A, mouse (m), current study, log” value (A2A adenosine receptor [3]) was −6.3 log mol/L, the pEC50 (A1 receptors) was 6.29 and the pIC50 ([4]; 1 μmol/L NECA) was 5.82.

In the case of `CCNC(=O)[C@H]1O[C@@H](n2cnc3c(N)ncnc32)[C@H](O)[C@@H]1O` [NECA, 5′-N-ethylcarboxamidoadenosine], the “Effect on CE-EPC adhesion to HMVEC-c cells” value [5] was “stimulated CE-EPC adhesion”, the “Stimulation of cAMP accumulation” value (HMVEC-c cells) was 5.1±0.1 fold and the “Effect on cAMP in eEPCs” value (eEPCs) was “did not elevate cAMP”. The “Effect on eEPC adhesion under laminar flow” value [6] was “significantly increased”, the “Time of half-maximal effect on eEPC adhesion” value ([4]; 1 μmol/L NECA) was 5 min and the pEC50 ([4]; Mus musculus, 0.5 h, 30 minutes, read-out: EC50, increase of eEPC adhesion) was 6.86. It also gave an eEPC adhesion ([4]; maximal, concentration-dependent, 30 minutes, basal 4.5±0.3%) of 21.3±1.4%.

For `Nc1nc2c(cnn2CCc2ccccc2)c2nc(-c3ccco3)nn12` [SCH58261, 5-amino-7-(phenylethyl)-2-(2-furyl)-pyrazolo-[4,3-e]-1,2,4-triazolo-[1,5-c]-pyrimidine], the “Affinity or potency at A2B, human (h)” value (A2B adenosine receptor [7]) is listed as over 100 nM, the “Affinity or potency at A2B, human (h), log” value (A2B adenosine receptor [7]) is listed as over −5 log mol/L and the “Affinity or potency at A2A, mouse (m), log” value (A2A adenosine receptor [8]) is listed as −9.0 log mol/L. For the same compound, the pKi (A2A adenosine receptor [8]; read-out: Affinity or potency at A2A, mouse (m)) was 9.00, the “Affinity or potency at A2A, rat (r), log” value (A2A adenosine receptor [9]) was “r 2.3 (2-2.7); −8.6 [12] log mol/L” and the “Affinity or potency at A2B, mouse (m), current study, log” value (A2B receptors) was 2,486); −5.7 log mol/L. For the same compound, the “Affinity or potency (Ki, KD, KB, IC50 or EC50) at A2B, mouse (m), current study” value (A2B receptors) was “m 1,868 (1,404- nmol/L”, the pIC50 ([4]; Mus musculus) was 5.77 and the “Effect on NECA-induced eEPC adhesion at lower concentrations” value ([4]; concentrations that selectively block A2A receptors, 1 μmol/L NECA) was “no effect”.
